Literature values, collected in US20170079478A1, “NITROUS OXIDE MIXTURES AND METHODS OF USE” (KORVATA INC., priority 2014, published 2017).
Like-named read-outs stand apart in the source and are kept apart here.

Key:
[1] = compared with nitrogen standardized to 1.0

[Ar] [Ar, argon]
lipid solubility (0° C. and 15 psi): 300 µg/mL
lipid solubility (20° C. and 15 psi): 250 µg/mL
RNP (Relative Narcotic Potency) [1]: 2.3

[N-]=[N+]=O [Example N2O, nitrous oxide]
RNP (Relative Narcotic Potency) [1]: 39

[He] [He, helium]
RNP (Relative Narcotic Potency) [1]: 0.045

[Kr] [Kr, krypton]
RNP (Relative Narcotic Potency) [1]: 7.1

[Ne] [Ne, neon]
RNP (Relative Narcotic Potency) [1]: 0.3

[Xe] [Xe, xenon]
RNP (Relative Narcotic Potency) [1]: 25.6
